These results are taken from ChEMBL document CHEMBL1201862, “PubChem BioAssay data set” (2004).

Each structure is given as a SMILES string.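 Cells were grown in 96-well plates and exposed to each compound for 48 hours at five concentrations; endpoints were interpolated linearly between bracketing concentrations, or set to the highest concentration if not reached. GI50 = concentration required for 50% inhibition of growth.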 The source made the active and inactive calls. Cut-off read from the data, not from the text of the source: active = GI50 up to about 1.1 µM and inactive = higher.

Test systems include MDA-N; SF-539; HOP-62; ACHN; IGROV-1; MOLT-4; TK-10; NCI-H23; K562; OVCAR-8; SN12C; SR; SF-295; SK-OV-3; RPMI-8226; MDA-MB-435; NCI-H460; RXF 393; EKVX; NCI/ADR-RES.
Holding throughout (test): NCI tumour cell line growth inhibition, 48 h

In the case of `O=[N+]([O-])c1cc(Cc2cc([N+](=O)[O-])c3cccnc3c2O)c(O)c2ncccc12`, the GI50 is 10.6 µM (inactive) in the assay with MDA-N; 10.6 µM (inactive) in the assay with SF-539; 9.1 µM (inactive) with HOP-62; 5.6 µM (inactive) in the assay on ACHN; 3.31 µM (inactive) in the assay with IGROV-1; 2.12 µM (inactive) in the assay with MOLT-4. For the same compound, the GI50 in the assay on TK-10 was 12.4 µM (inactive); in the assay with NCI-H23 it was 9.48 µM (inactive); with K562, 4.16 µM (inactive); with OVCAR-8, 3.6 µM (inactive); in the assay with SN12C, 4.55 µM (inactive); in the assay with SR, 0.845 µM (active). In addition, the GI50 in the assay with SF-295 was 6.15 µM (inactive); with SK-OV-3 it was 15.7 µM (inactive); with RPMI-8226, 4.57 µM (inactive); in the assay on MDA-MB-435, 10.5 µM (inactive); in the assay on NCI-H460, 2.18 µM (inactive); with RXF 393, 5.32 µM (inactive). Also, the values for the GI50 in the assay with EKVX and in the assay with NCI/ADR-RES were 6.37 µM (inactive) and 3.6 µM (inactive), respectively.
Turning to `Cc1cc(NS(=O)(=O)c2ccc(NC(=O)c3ccc4nc5ccccc5c(Nc5ccc(S(N)(=O)=O)cc5)c4c3)cc2)no1`, the GI50 with MDA-N is 25.6 µM (inactive); in the assay with SF-539, 27.9 µM (inactive); in the assay on HOP-62, 33.6 µM (inactive); with ACHN it was 21.3 µM (inactive); in the assay with IGROV-1, 33.4 µM (inactive); in the assay with MOLT-4, 22.3 µM (inactive). Besides, the GI50 in the assay on TK-10 is 30.5 µM (inactive); in the assay on NCI-H23, 33 µM (inactive); with K562 it was 19.8 µM (inactive); in the assay with OVCAR-8, 24.6 µM (inactive); in the assay on SN12C, 27.2 µM (inactive); in the assay with SR, 25.1 µM (inactive). For the same compound, the GI50 in the assay with SF-295 was 26.6 µM (inactive); with SK-OV-3 it was > 100 µM (inactive); in the assay with RPMI-8226, 24.7 µM (inactive); in the assay with MDA-MB-435 it was 21.4 µM (inactive); with NCI-H460, 20.7 µM (inactive); with RXF 393 it was 23.4 µM (inactive). In addition, the GI50 with EKVX is 24.7 µM (inactive); in the assay on NCI/ADR-RES it was 31.8 µM (inactive).
As for `CCn1c2ccc(C(=O)CCCN(C)C)cc2c2cc(C(=O)CCCN(C)C)ccc21`, the GI50 was 2.05 µM (inactive) with MDA-N; 0.805 µM (active) in the assay with SF-539; 0.701 µM (active) in the assay with HOP-62; 0.759 µM (active) in the assay on ACHN; 0.889 µM (active) in the assay on IGROV-1; 0.256 µM (active) with MOLT-4. Further, the GI50 is 1.98 µM (inactive) in the assay on TK-10; 1.61 µM (inactive) in the assay with NCI-H23; 2.05 µM (inactive) in the assay with K562; 0.533 µM (active) in the assay with OVCAR-8; 0.946 µM (active) in the assay on SN12C; 1.13 µM (inactive) with SR. Also, the GI50 was 3.64 µM (inactive) in the assay on SF-295; 5.79 µM (inactive) with SK-OV-3; 1.77 µM (inactive) in the assay with RPMI-8226; 1.27 µM (inactive) with MDA-MB-435; 0.421 µM (active) in the assay with NCI-H460; 1.68 µM (inactive) with RXF 393. For the same compound, the GI50 with EKVX was 1.79 µM (inactive); with NCI/ADR-RES, 4.93 µM (inactive).
Turning to `Nc1c(/C=C/c2cc3cc(C4=NCCN4)ccc3o2)[nH]c2cc(C3=NCCN3)ccc12`, the GI50 in the assay on MDA-N is 37.8 µM (inactive); in the assay on SF-539, 40 µM (inactive); with HOP-62, 34.2 µM (inactive); in the assay on ACHN, 47.1 µM (inactive); in the assay with IGROV-1, 39.1 µM (inactive); in the assay with MOLT-4, 28.9 µM (inactive). For the same compound, the GI50 with TK-10 was 31.6 µM (inactive); with NCI-H23 it was 60.7 µM (inactive); with K562, 41.3 µM (inactive); in the assay on OVCAR-8, 38.9 µM (inactive); in the assay with SN12C it was 33.2 µM (inactive); with SR, 43.7 µM (inactive). Besides, the GI50 in the assay with SF-295 is 34.3 µM (inactive); in the assay with SK-OV-3 it was > 100 µM (inactive); in the assay on RPMI-8226 it was 39 µM (inactive); with MDA-MB-435 it was 33.1 µM (inactive); in the assay on NCI-H460 it was 32.7 µM (inactive); in the assay with RXF 393, 43 µM (inactive). For the same compound, the GI50 in the assay on EKVX was 40.1 µM (inactive); with NCI/ADR-RES it was 76.2 µM (inactive).
In the case of `CC(C)(C)C1CCC2c3c([nH]c4ccccc34)C3C(=O)N(c4cccc(Cl)c4)C(=O)C3C2C1` (stereo not given), the GI50 in the assay on MDA-N is 11 µM (inactive); in the assay with SF-539, 17.5 µM (inactive); in the assay on HOP-62 it was 0.518 µM (active); with ACHN, 9.33 µM (inactive); in the assay on IGROV-1 it was 13.8 µM (inactive); in the assay with MOLT-4 it was 1.85 µM (inactive). Moreover, the GI50 is 16.8 µM (inactive) with TK-10; 8.49 µM (inactive) with NCI-H23; 2.44 µM (inactive) in the assay with K562; 17.7 µM (inactive) with OVCAR-8; 5.71 µM (inactive) in the assay with SN12C; 4.36 µM (inactive) in the assay with SR. For the same compound, the GI50 in the assay on SF-295 was 18.5 µM (inactive); with SK-OV-3, 24.1 µM (inactive); with RPMI-8226 it was 9.27 µM (inactive); in the assay on MDA-MB-435, 10.5 µM (inactive); in the assay with NCI-H460, 4.63 µM (inactive); in the assay on RXF 393, 8.36 µM (inactive). Further, the GI50 in the assay with EKVX is 11.5 µM (inactive); in the assay with NCI/ADR-RES, 13.6 µM (inactive).
For `COc1c2c(cc3c1C1(O)Cc4ccc5c(c4C[N+]1(C)CC3)OCO5)OCO2` (stereo not given), the GI50 in the assay on MDA-N is > 100 µM (inactive); in the assay on SF-539, > 100 µM (inactive); in the assay on HOP-62, > 100 µM (inactive); in the assay on ACHN, > 100 µM (inactive); in the assay with IGROV-1, > 100 µM (inactive); in the assay on MOLT-4, 50.8 µM (inactive). Also, the GI50 in the assay on TK-10 was > 100 µM (inactive); in the assay on NCI-H23, > 100 µM (inactive); in the assay on K562 it was 37.3 µM (inactive); in the assay with OVCAR-8, > 100 µM (inactive); in the assay on SN12C, > 100 µM (inactive); in the assay with SR it was 77.8 µM (inactive). For the same compound, the GI50 was > 100 µM (inactive) in the assay on SF-295; > 100 µM (inactive) in the assay on SK-OV-3; 85.3 µM (inactive) in the assay with RPMI-8226; > 100 µM (inactive) in the assay on MDA-MB-435; 88.1 µM (inactive) in the assay on NCI-H460; 43.9 µM (inactive) in the assay on RXF 393. Also, the GI50 is 87.3 µM (inactive) in the assay on EKVX and > 100 µM (inactive) in the assay on NCI/ADR-RES.
Turning to `O=c1[nH]c(=O)n(C2C(CO)OC(CO)C2O)cc1F` (stereo not given), the GI50 in the assay on MDA-N, with SF-539, in the assay on HOP-62, with ACHN, in the assay on IGROV-1 and in the assay with MOLT-4 was > 100 µM (inactive) throughout. Besides, the GI50 with TK-10, with NCI-H23, with K562, in the assay with OVCAR-8, with SN12C and in the assay on SR was > 100 µM (inactive) in each case. Moreover, the GI50 with SF-295, with SK-OV-3, in the assay with RPMI-8226, in the assay on MDA-MB-435, with NCI-H460 and in the assay with RXF 393 was > 100 µM (inactive) each time. For the same compound, the GI50 in the assay on EKVX and in the assay with NCI/ADR-RES was > 100 µM (inactive) throughout.
In the case of `CC(C)(Cl)C(Br)CCC(C)(Cl)C(Br)CBr` (stereo not given), the GI50 in the assay with MDA-N is 31 µM (inactive); in the assay with SF-539 it was 24.5 µM (inactive); in the assay on HOP-62 it was 24.9 µM (inactive); in the assay with ACHN, 21.2 µM (inactive); with IGROV-1, 23.3 µM (inactive); in the assay on MOLT-4, 41.2 µM (inactive). Moreover, the GI50 in the assay with TK-10 was 35.4 µM (inactive); with NCI-H23, 20.7 µM (inactive); with K562, 22.5 µM (inactive); in the assay on OVCAR-8, > 100 µM (inactive); in the assay with SN12C it was 22.1 µM (inactive); in the assay with SR, 2.58 µM (inactive). Besides, the GI50 with SF-295 is 20.2 µM (inactive); with SK-OV-3, 39.2 µM (inactive); with RPMI-8226, 18.1 µM (inactive); in the assay on MDA-MB-435, 26.7 µM (inactive); with NCI-H460 it was 20 µM (inactive); with RXF 393, 32.7 µM (inactive). Further, the GI50 in the assay with EKVX was 32.1 µM (inactive); in the assay on NCI/ADR-RES, 31.7 µM (inactive).
For the compound `Nc1ccc2c(=O)cc(-c3ccc(Br)s3)[nH]c2n1`, the GI50 was 0.323 µM (active) in the assay on MDA-N; 2.16 µM (inactive) in the assay with SF-539; 4.86 µM (inactive) in the assay with HOP-62; 7.16 µM (inactive) in the assay on ACHN; 3.85 µM (inactive) in the assay with IGROV-1; 2.33 µM (inactive) with MOLT-4. Further, the GI50 in the assay on TK-10 was 11.7 µM (inactive); with NCI-H23, 2.22 µM (inactive); with K562, 0.522 µM (active); with OVCAR-8, 3.52 µM (inactive); in the assay on SN12C, 6.55 µM (inactive); in the assay on SR it was 0.267 µM (active). The GI50 with SF-295 is 2.83 µM (inactive); in the assay with SK-OV-3, 3.94 µM (inactive); in the assay on RPMI-8226 it was 1.89 µM (inactive); with MDA-MB-435, 0.32 µM (active); in the assay on NCI-H460, 4.16 µM (inactive); in the assay on RXF 393, 3.71 µM (inactive). Besides, the GI50 in the assay on EKVX is 7.59 µM (inactive); in the assay on NCI/ADR-RES, 2.6 µM (inactive).
As for `CCc1nc(N)nc(N)c1-c1ccc(NCCN)c([N+](=O)[O-])c1`, the GI50 in the assay on MDA-N was 6.92 µM (inactive); in the assay on SF-539, 11.6 µM (inactive); in the assay with HOP-62 it was 18.2 µM (inactive); with ACHN it was 34.9 µM (inactive); with IGROV-1, 8.97 µM (inactive); in the assay with MOLT-4 it was 7.16 µM (inactive). Further, the GI50 in the assay with TK-10 is > 88.7 µM (inactive); with NCI-H23 it was 7.4 µM (inactive); in the assay with K562 it was 1.09 µM (active); in the assay with OVCAR-8 it was 7.67 µM (inactive); in the assay on SN12C, 12.1 µM (inactive); with SR, 4 µM (inactive). Also, the GI50 was 11.3 µM (inactive) with SF-295; 82.8 µM (inactive) in the assay with SK-OV-3; 29.6 µM (inactive) in the assay with RPMI-8226; 7.13 µM (inactive) in the assay with MDA-MB-435; 2.75 µM (inactive) in the assay on NCI-H460; 39 µM (inactive) in the assay with RXF 393. Moreover, the GI50 in the assay on EKVX is 29 µM (inactive); in the assay on NCI/ADR-RES, > 100 µM (inactive).
